Experimental findings from patent US10633419B2, “Immunomodulators” (BRISTOL-MYERS SQUIBB COMPANY, priority 2014, dated 2020) are described below.

A word on the IC50: it is the concentration that inhibits the measured activity by half.

The first experiment deals with T1, PD-L1 (Homo sapiens, UniProt Q9NZQ7).
T1 construct: hPDL1(19-239)-TVMV-His; made in house; host or cells: HEK293T
T1 sequence (Q9NZQ7 with tags, fused parts or gaps): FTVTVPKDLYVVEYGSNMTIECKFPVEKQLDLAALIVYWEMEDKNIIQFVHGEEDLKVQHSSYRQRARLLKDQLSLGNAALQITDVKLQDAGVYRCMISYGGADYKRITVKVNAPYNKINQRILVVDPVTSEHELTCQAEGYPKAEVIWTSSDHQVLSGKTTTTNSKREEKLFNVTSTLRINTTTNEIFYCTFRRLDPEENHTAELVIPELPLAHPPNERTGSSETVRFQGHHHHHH
As to the kind of experiment: PD-1/PD-L1 Homogenous Time-Resolved Fluorescence (HTRF) binding assay (PD-1-Ig/PD-L1-His).
Conditions: not given
In outline:
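HTRF competition in dPBS with 0.1% BSA and 0.05% Tween-20: 20 nM PD-1-Ig added after 15 min compound pre-incubation with 10 nM PD-L1-His, then another 15 min. Signal (665/620 nm) after 30 min with APC anti-His (20 nM) and Eu anti-Ig (1 nM).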
The molecule `CCCC[C@H]1C(=O)N(C)[C@@H](CCCC)C(=O)N[C@@H](CCC(=O)O)C(=O)N[C@H](C(=O)NCC(=O)N[C@@H](Cc2cn(CCCCCNC(=O)CCC(=O)Oc3c(C)c(C)c4c(c3C)CC[C@@](C)(CCC[C@H](C)CCC[C@H](C)CCCC(C)C)O4)nn2)C(=O)N[C@@H](CC(=O)O)C(N)=O)CSCC(=O)N[C@@H](Cc2ccc(O)cc2)C(=O)N(C)[C@@H](C)C(=O)N[C@@H](CC(=O)O)C(=O)N2CCC[C@H]2C(=O)N[C@@H](Cc2c[nH]cn2)C(=O)N[C@@H](CCCCN)C(=O)N2C[C@H](O)C[C@H]2C(=O)N[C@@H](Cc2c[nH]c3ccccc23)C(=O)N[C@@H](CCCCN)C(=O)N[C@@H](Cc2c[nH]c3ccccc23)C(=O)N1C` [Example 14056] registered an IC50 of 100 to 1600 nM. Still for that read-out and setting: to `CCCC[C@H]1C(=O)N(C)[C@@H](CCCC)C(=O)N[C@@H](CCCNC(=N)N)C(=O)N[C@H](C(=O)NCC(=O)N[C@@H](Cc2cn(CCCCCNC(=O)CCC(=O)Oc3c(C)c(C)c4c(c3C)CC[C@@](C)(CCC[C@H](C)CCC[C@H](C)CCCC(C)C)O4)nn2)C(N)=O)CSCC(=O)N[C@@H](Cc2ccc(O)cc2)C(=O)N(C)[C@@H](C)C(=O)N[C@@H](CC(N)=O)C(=O)N2CCC[C@H]2C(=O)N[C@@H](CN)C(=O)N[C@@H](CC(C)C)C(=O)N2C[C@H](O)C[C@H]2C(=O)N[C@@H](Cc2c[nH]c3ccccc23)C(=O)N[C@@H](CO)C(=O)N[C@@H](Cc2csc3ccccc23)C(=O)N1C` [Example 14058] belongs 100 to 1600 nM. Molecule `CCCC[C@H]1C(=O)N(C)[C@@H](CCCC)C(=O)N[C@@H](CCC(=O)O)C(=O)N[C@H](C(=O)NCC(=O)N[C@@H](Cc2cn(CCOCCOCCOCCOC(=O)CCC(=O)Oc3c(C)c(C)c4c(c3C)CC[C@@](C)(CCC[C@H](C)CCC[C@H](C)CCCC(C)C)O4)nn2)C(=O)NCC(N)=O)CSCC(=O)N[C@@H](Cc2ccc(O)cc2)C(=O)N(C)[C@@H](C)C(=O)N[C@@H](CC(=O)O)C(=O)N2CCC[C@H]2C(=O)N[C@@H](Cc2c[nH]cn2)C(=O)N[C@@H](CCCCN)C(=O)N2C[C@H](O)C[C@H]2C(=O)N[C@@H](Cc2c[nH]c3ccccc23)C(=O)N[C@@H](CCCCN)C(=O)N[C@@H](Cc2c[nH]c3ccccc23)C(=O)N1C` [Example 14060] displayed an IC50 of 100 to 1600 nM.

The experiment is the same for the next values; noted with them: inhibition of PD-1-Ig binding to PD-L1-TVMV-His; value given as range class; read-out: HTRF IC50.
`CCCCCCCCCCCCCCCC(=O)N[C@@H](CCn1cc(C[C@H](NC(=O)CNC(=O)[C@@H]2CSCC(=O)N[C@@H](Cc3ccc(O)cc3)C(=O)N(C)[C@@H](C)C(=O)N[C@@H](CC(=O)O)C(=O)N3CCC[C@H]3C(=O)N[C@@H](Cc3c[nH]cn3)C(=O)N[C@@H](CCCCN)C(=O)N3C[C@H](O)C[C@H]3C(=O)N[C@@H](Cc3c[nH]c4ccccc34)C(=O)N[C@@H](CCCCN)C(=O)N[C@@H](Cc3c[nH]c4ccccc34)C(=O)N(C)[C@@H](CCCC)C(=O)N(C)[C@@H](CCCC)C(=O)N[C@@H](CCC(=O)O)C(=O)N2)C(=O)NCC(N)=O)nn1)C(=O)O` [Example 14059]: the half-maximal inhibitory concentration (IC50) was in the range of 10 to 99 nM.

Take `CCCCCCCCCCCCCCCC(=O)N[C@@H](CCn1cc(C[C@H](NC(=O)CNC(=O)[C@@H]2CSCC(=O)N[C@@H](Cc3ccc(O)cc3)C(=O)N(C)[C@@H](C)C(=O)N[C@@H](CC(=O)O)C(=O)N3CCC[C@H]3C(=O)N[C@@H](Cc3c[nH]cn3)C(=O)N[C@@H](CCCCN)C(=O)N3C[C@H](O)C[C@H]3C(=O)N[C@@H](Cc3c[nH]c4ccccc34)C(=O)N[C@@H](CCCCN)C(=O)N[C@@H](Cc3c[nH]c4ccccc34)C(=O)N(C)[C@@H](CCCC)C(=O)N(C)[C@@H](CCCC)C(=O)N[C@@H](CCC(=O)O)C(=O)N2)C(=O)N[C@@H](CC(=O)O)C(N)=O)nn1)C(=O)O` [Example 14061]: the IC50 was 10 to 99 nM. On to `CCCCCCCCCCCCCCCC(=O)N[C@@H](CCn1cc(C[C@H](NC(=O)CNC(=O)[C@@H]2CSCC(=O)N[C@@H](Cc3ccc(O)cc3)C(=O)N(C)[C@@H](C)C(=O)N[C@@H](CC(=O)O)C(=O)N3CCC[C@H]3C(=O)N[C@@H](Cc3c[nH]cn3)C(=O)N[C@@H](CCC(N)=O)C(=O)N3C[C@H](O)C[C@H]3C(=O)N[C@@H](Cc3c[nH]c4ccccc34)C(=O)N[C@@H](CO)C(=O)N[C@@H](Cc3c[nH]c4ccccc34)C(=O)N(C)[C@@H](CCCC)C(=O)N(C)[C@@H](CCCC)C(=O)N[C@@H](CCC(=O)O)C(=O)N2)C(=O)NCC(N)=O)nn1)C(=O)O` [Example 14062], for which the half-inhibitory concentration (IC50) was in the range of 10 to 99 nM.

For `CCCC[C@H]1C(=O)N(C)[C@@H](CCCC)C(=O)N[C@@H](CCC(=O)O)C(=O)N[C@H](C(=O)NCC(=O)N[C@@H](Cc2cn(CCOCCOCCOCCOC)nn2)C(=O)NCC(N)=O)CSCC(=O)N[C@@H](Cc2ccc(O)cc2)C(=O)N(C)[C@@H](C)C(=O)N[C@@H](CC(=O)O)C(=O)N2CCC[C@H]2C(=O)N[C@@H](Cc2c[nH]cn2)C(=O)N[C@@H](CCCCN)C(=O)N2C[C@H](O)C[C@H]2C(=O)N[C@@H](Cc2c[nH]c3ccccc23)C(=O)N[C@@H](CCCCN)C(=O)N[C@@H](Cc2c[nH]c3ccccc23)C(=O)N1C` [Example 14063], the IC50 was 10 to 99 nM. On the same count and under the same terms, to `CCCC[C@H]1C(=O)N(C)[C@@H](CCCC)C(=O)N[C@@H](CCC(=O)O)C(=O)N[C@H](C(=O)NCC(=O)N[C@@H](Cc2cn(CC[C@H](NC(=O)CCCCCCCCCCCCCCC(=O)O)C(=O)O)nn2)C(=O)NCC(N)=O)CSCC(=O)N[C@@H](Cc2ccc(O)cc2)C(=O)N(C)[C@@H](C)C(=O)N[C@@H](CC(=O)O)C(=O)N2CCC[C@H]2C(=O)N[C@@H](Cc2c[nH]cn2)C(=O)N[C@@H](CCCCN)C(=O)N2C[C@H](O)C[C@H]2C(=O)N[C@@H](Cc2c[nH]c3ccccc23)C(=O)N[C@@H](CCCCN)C(=O)N[C@@H](Cc2c[nH]c3ccccc23)C(=O)N1C` [Example 14064] belongs 0.3 to 9.9 nM. Still for that read-out and setting: the figure for `CCCC[C@H]1C(=O)N(C)[C@@H](CCCC)C(=O)N[C@@H](CCC(=O)O)C(=O)N[C@H](C(=O)NCC(=O)N[C@@H](Cc2cn(CC[C@H](NC(=O)CCCCCCCCCCCCCCC(=O)O)C(=O)O)nn2)C(=O)N[C@@H](CC(=O)O)C(N)=O)CSCC(=O)N[C@@H](Cc2ccc(O)cc2)C(=O)N(C)[C@@H](C)C(=O)N[C@@H](CC(=O)O)C(=O)N2CCC[C@H]2C(=O)N[C@@H](Cc2c[nH]cn2)C(=O)N[C@@H](CCCCN)C(=O)N2C[C@H](O)C[C@H]2C(=O)N[C@@H](Cc2c[nH]c3ccccc23)C(=O)N[C@@H](CCCCN)C(=O)N[C@@H](Cc2c[nH]c3ccccc23)C(=O)N1C` [Example 14065] is 10 to 99 nM. Take `CCCC[C@H]1C(=O)N(C)[C@@H](CCCC)C(=O)N[C@@H](CCCNC(=N)N)C(=O)N[C@H](C(=O)NCC(=O)N[C@@H](Cc2cn(CC[C@H](NC(=O)CCCCCCCCCCCCCCC(=O)O)C(=O)O)nn2)C(N)=O)CSCC(=O)N[C@@H](Cc2ccc(O)cc2)C(=O)N(C)[C@@H](C)C(=O)N[C@@H](CC(N)=O)C(=O)N2CCC[C@H]2C(=O)N[C@@H](CN)C(=O)N[C@@H](CC(C)C)C(=O)N2C[C@H](O)C[C@H]2C(=O)N[C@@H](Cc2c[nH]c3ccccc23)C(=O)N[C@@H](CO)C(=O)N[C@@H](Cc2c[nH]c3ccccc23)C(=O)N1C` [Example 14066]: the IC50 is 0.3 to 9.9 nM. For `CCCC[C@H]1C(=O)N(C)[C@@H](CCCC)C(=O)N[C@@H](CCC(=O)O)C(=O)N[C@H](C(=O)NCC(=O)N[C@@H](Cc2cn(CC[C@H](NC(=O)CCCCCCCCCCCCCCC(=O)O)C(=O)O)nn2)C(N)=O)CSCC(=O)N[C@@H](Cc2ccc(O)cc2)C(=O)N(C)[C@@H](C)C(=O)N[C@@H](CC(=O)O)C(=O)N2CCC[C@H]2C(=O)N[C@@H](Cc2c[nH]cn2)C(=O)N[C@@H](CCC(N)=O)C(=O)N2C[C@H](O)C[C@H]2C(=O)N[C@@H](Cc2c[nH]c3ccccc23)C(=O)N[C@@H](CO)C(=O)N[C@@H](Cc2c[nH]c3ccccc23)C(=O)N1C` [Example 14068], the IC50 lay within 10 to 99 nM. Turning to `CCCC[C@H]1C(=O)N(C)[C@@H](CCCC)C(=O)N[C@@H](CCC(=O)O)C(=O)N[C@H](C(=O)NCC(=O)N[C@@H](Cc2cn(CC[C@H](NC(=O)CCCCCCCCCCCCCCC(=O)O)C(=O)O)nn2)C(=O)NCC(N)=O)CSCC(=O)N[C@@H](Cc2ccc(O)cc2)C(=O)N(C)[C@@H](C)C(=O)N[C@@H](CC(=O)O)C(=O)N2CCC[C@H]2C(=O)N[C@@H](Cc2c[nH]cn2)C(=O)N[C@@H](CCC(N)=O)C(=O)N2C[C@H](O)C[C@H]2C(=O)N[C@@H](Cc2c[nH]c3ccccc23)C(=O)N[C@@H](CO)C(=O)N[C@@H](Cc2c[nH]c3ccccc23)C(=O)N1C` [Example 14069], the IC50 was 10 to 99 nM. Still for that read-out and setting: the figure for `CCCC[C@H]1C(=O)N(C)[C@@H](CCCC)C(=O)N[C@@H](CCC(=O)O)C(=O)N[C@H](C(=O)NCC(=O)N[C@@H](Cc2cn(CC[C@H](NC(=O)CCCCCCCCCCCCCCC(=O)O)C(=O)O)nn2)C(N)=O)CSCC(=O)N[C@@H](Cc2ccc(O)cc2)C(=O)N(C)[C@@H](C)C(=O)N[C@@H](CC(N)=O)C(=O)N2CCC[C@H]2C(=O)N[C@@H](CN)C(=O)N[C@@H](CC(C)C)C(=O)N2C[C@H](O)C[C@H]2C(=O)N[C@@H](Cc2c[nH]c3ccccc23)C(=O)N[C@@H](CO)C(=O)N[C@@H](Cc2cn(CC(=O)O)c3ccccc23)C(=O)N1C` [Example 14070] is 10 to 99 nM; for `CCCC[C@H]1C(=O)N(C)[C@@H](CCCC)C(=O)N[C@@H](CCC(=O)O)C(=O)N[C@H](C(=O)NCC(=O)N[C@@H](Cc2cn(CC[C@H](NC(=O)CCCCCCCCCCCCCCC(=O)O)C(=O)O)nn2)C(=O)N[C@@H](CC(=O)O)C(N)=O)CSCC(=O)N[C@@H](Cc2ccc(O)cc2)C(=O)N(C)[C@@H](C)C(=O)N[C@@H](CC(=O)O)C(=O)N2CCC[C@H]2C(=O)N[C@@H](Cc2c[nH]cn2)C(=O)N[C@@H](CCCCN)C(=O)N2C[C@H](O)C[C@H]2C(=O)N[C@@H](Cc2c[nH]c3ccccc23)C(=O)N[C@@H](CCCCN)C(=O)N[C@@H](Cc2cn(CC(=O)O)c3ccccc23)C(=O)N1C` [Example 14071] it is 10 to 99 nM.
